Key:
Type in all cases: cell-based
SMN2 CJ mRNA = test: Gene panel canonical junction qPCR assay, SMN2; conditions: protocol of Example 42, read-out: SMN2 IC50 (decrease in CJ mRNA levels)
Description: (§1) Compounds described herein were used to modulate RNA transcript abundance in cells. The expression of a target mRNA was measured by detecting the formation of an exon-exon junction in the canonical transcript (CJ). A compound mediated exon-inclusion event was detected by observing an increase in formation of a new junction with an alternative exon (AJ). Real-time qPCR assays were used to detect these splicing switches and interrogate the potency of various compounds towards different target genes. A high-throughput real time quantitative PCR (RT-qPCR) assay was developed to measure these two isoforms of the mRNA (CJ and AJ) for an exemplary gene, HTT, together with a control housekeeping gene, GAPDH or GUSB or PPIA, used for normalization. Briefly, the A673 or K562 cell line was treated with various compounds described herein (e.g., compounds of Formula (I)). After treatment, the levels of the HTT mRNA targets were determined from each sample of cell lysate by cDNA synthesis followed by qPCR.
(§2) The A673 cell line was cultured in DMEM with 10% FBS. Cells were diluted with full growth media and plated in a 96-well plate (15,000 cells in 100 ul media per well). The plate was incubated at 37° C. with 5% CO2 for 24 hours to allow cells to adhere. An 11-point 3-fold serial dilution of the compounds was made in DMSO then diluted in media in an intermediate plate. Compounds were transferred from the intermediate plate to the cell plate with the top dose at a final concentration of 10 uM in the well. Final DMSO concentration was kept at or below 0.25%. The cell plate was returned to the incubator at 37° C. with 5% CO2 for an additional 24 hours.
(§3) The K562 cell line was cultured in IMDM with 10% FBS. For K562, cells were diluted with full growth media and plated in either a 96-well plate (50,000 cells in 50 uL media per well) or a 384-well plate (8,000-40,000 cells in 45 uL media per well). An 11-point 3-fold serial dilution of the compounds were made in DMSO then diluted in media in an intermediate plate. Compound was transferred from the intermediate plate to the cell plate with the top dose at a final concentration of 10 uM in the well. Final DMSO concentration was kept at or below 0.25%. Final volume was 100 uL for 96-well plate and 50 uL for 384-well plate. The cell plate was then placed in an incubator at 37° C. with 5% CO2 for 24 hours.
(§4) The data analysis was performed by first determining the ACt vs the housekeeper gene. This ACt was then normalized against the DMSO control (AACt) and converted to RQ (relative quantification) using the 2^(−ΔΔCt) equation. The RQ were then converted to a percentage response by arbitrarily setting an assay window of 3.5 ΔCt for HTT-CJ and an assay window of 9 ΔCt for HTT-AJ. […] The percentage response was then fitted to the 4 parametric logistic equation to evaluate the concentration dependence of compound treatment. The increase in AJ mRNA is reported as AC50 (compound concentration having 50% response in AJ increase) while the decrease in CJ mRNA levels is reported as IC50 (compound concentration having 50% response in CJ decrease).
(§5) Additional studies were carried out for a larger panel of genes using the protocol provided above. The junction between flanking upstream and downstream exons was used to design canonical junction qPCR assays. At least one of the forward primer, reverse primer or the CY5-labeled 5′ nuclease probe (with 3′ quencher such as ZEN/Iowa Black FQ) was designed to overlap with the exon junction to capture the CJ mRNA transcript. BLAST was used to confirm the specificity of the probeset and parameters such as melting temperature, GC content, amplicon size, and primer dimer formation are considered during their design. Data for the decrease in CJ mRNA levels for three exemplary genes (HTT, SMN2, and Target C) analyzed in this panel are reported as IC50 (compound concentration having 50% response in CJ decrease).

[1] = tested on: HTT mRNA alternative junction (AJ); test: Splicing RT-qPCR assay, increase of HTT alternative junction (AJ) mRNA; conditions: A673 or K562 cells, 24 hours compound treatment, concentration having 50% response in AJ increase
Description: as §1, §2, §3
(§6) The cells were then gently washed with 50 uL-100 uL cold PBS before proceeding to addition of lysis buffer. 30 uL-50 uL of room temperature lysis buffer with DNAse I (and optionally RNAsin) was added to each well. Cells were shaken/mixed thoroughly at room temperature for 5-10 minutes for lysis to take place and then 3 uL-5 uL of room temperature stop solution was added and wells were shaken/mixed again. After 2-5 minutes, the cell lysate plate was transferred to ice for RT-qPCR reaction setup. The lysates could also be frozen at −80° C. for later use.
(§7) In some cases, a direct lysis buffer was used. An appropriate volume of 3× lysis buffer (10 mM Tris, 150 mM NaCl, 1.5%-2.5% Igepal and 0.1-1 U/uL RNAsin, pH 7.4) was directly added to either K562 or A673 cells in media and mixed by pipetting 3 times. The plates were then incubated at room temperature with shaking/rocking for 20-50 minutes to allow for lysis to take place. After this time, the cell lysate plate was transferred to ice to set up for the RT-qPCR reactions. The lysates could also be frozen at −80° C. for later use.
(§8) To set up 10 uL RT-qPCR reactions, cell lysates were transferred to 384-well qPCR plates containing the master mix according to the table below. The plates were sealed, gently vortexed, and spun down before the run. The volumes were adjusted accordingly in some instances where the reaction was carried in 20 uL. The table below summarizes the components of the RT-qPCR reactions:
(§9) The RT-qPCR reaction was performed using a QuantStudio (ThermoFisher) under the following fast cycling conditions. […]

HTT CJ mRNA = test: Gene panel canonical junction qPCR assay, HTT; conditions: protocol of Example 42, read-out: HTT IC50 (decrease in CJ mRNA levels)
Description: as §1, §2, §3, §4, §5

[2] = tested on: HTT mRNA canonical junction (CJ); test: Splicing RT-qPCR assay, decrease of HTT canonical junction (CJ) mRNA; conditions: A673 or K562 cells, 24 hours compound treatment, concentration having 50% response in CJ decrease
Description: as §1, §2, §3, §6, §7, §8, §9

Target C CJ mRNA = test: Gene panel canonical junction qPCR assay, Target C; conditions: protocol of Example 42, read-out: Target C IC50 (decrease in CJ mRNA levels)
Description: as §1, §2, §3, §4, §5

IC50 (SMN2 CJ mRNA) | IC50 (HTT CJ mRNA) | IC50 (Target C CJ mRNA) | Compound | AC50 [1] | AC50 [2]
< 100 nM | 1000 to 10000 nM | 1000 to 10000 nM | Cc1cn2cc(NC(=O)c3ccc(N4CCN(C)CC4)c4cc(C)oc34)cc(F)c2n1 [Compound 189, N-[8-fluoro-2-methylimidazo [1,2-a]pyridin-6-yl]-2-methyl-4-(4-methylpiperazin-1-yl)-1-benzofuran-7-carboxamide] | 1000 to 10000 nM | 1000 to 10000 nM
100 to 1000 nM | 1000 to 10000 nM | 1000 to 10000 nM | Cc1cn2cc(NC(=O)c3ccc(N4CCNC(C)C4)c4cc(C)oc34)cc(F)c2n1 (stereo not drawn) [Compound 190, N-{8-fluoro-2-methylimidazo[1,2-a]pyridin-6-yl}-2-methyl-4-(3-methylpiperazin-1-yl)-1-benzofuran-7-carboxamide] | 1000 to 10000 nM | 1000 to 10000 nM
< 100 nM | 100 to 1000 nM | 1000 to 10000 nM | Cc1cn2cc(NC(=O)c3ccc(N4CCN(C)C(C)C4)c4cc(C)oc34)cc(F)c2n1 (stereo not drawn) [Compound 191] | 1000 to 10000 nM | 100 to 1000 nM
< 100 nM | 1000 to 10000 nM | > 10000 nM | Cc1cn2cc(NC(=O)c3ccc(N4CCNC(C)(C)C4)c4cc(C)oc34)cc(F)c2n1 [Compound 193] | 1000 to 10000 nM | 1000 to 10000 nM
< 100 nM | 1000 to 10000 nM | > 10000 nM | Cc1cn2cc(NC(=O)c3ccc(N4CCNC5(CC5)C4)c4cc(C)oc34)cc(F)c2n1 [Compound 194] | 1000 to 10000 nM | 1000 to 10000 nM
< 100 nM | 1000 to 10000 nM | 1000 to 10000 nM | CCNC1CCN(c2ccc(C(=O)Nc3cc(F)c4nc(C)cn4c3)c3oc(C)cc23)CC1 [Compound 196, 4-[4-(ethylamino)piperidin-1-yl]-N-[8-fluoro-2-methylimidazo[1,2-a]pyridin-6-yl]-2-methyl-1-benzofuran-7-carboxamide] | 1000 to 10000 nM | 1000 to 10000 nM
100 to 1000 nM | > 10000 nM | > 10000 nM | Cc1cn2cc(NC(=O)c3ccc(N4CCC(NC(C)(C)C)CC4)c4cc(C)oc34)cc(F)c2n1 [Compound 197, 4-[4-(tert-butylamino)piperidin-1-yl]-N-[8-fluoro-2-methylimidazo[1,2-a]pyridin-6-yl]-2-methyl-1-benzofuran-7-carboxamide] | > 10000 nM | > 10000 nM
< 100 nM | 100 to 1000 nM | 1000 to 10000 nM | Cc1cn2cc(NC(=O)c3ccc(N4CCC(N(C)C)CC4)c4cc(C)oc34)cc(F)c2n1 [Compound 198, 4-[4-(dimethylamino)piperidin-1-yl]-N-[8-fluoro-2-methylimidazo[1,2-a]pyridin-6-yl]-2-methyl-1-benzofuran-7-carboxamide] | 1000 to 10000 nM | 100 to 1000 nM
< 100 nM | 100 to 1000 nM | 1000 to 10000 nM | Cc1cn2cc(NC(=O)c3ccc(N4CCN5CCCC5C4)c4cc(C)oc34)cc(F)c2n1 (stereo not drawn) [Compound 199, N-[8-fluoro-2-methylimidazo[1,2-a]pyridin-6-yl]-4-[hexahydro-1H-pyrrolo[1,2-a]pyrazin-2-yl]-2-methyl-1-benzofuran-7-carboxamide] | 100 to 1000 nM | 100 to 1000 nM
< 100 nM | > 10000 nM | > 10000 nM | Cc1cn2cc(NC(=O)c3ccc(N4CCC(N(C)C)C4)c4cc(C)oc34)cc(F)c2n1 (stereo not drawn) [Compound 202] | 1000 to 10000 nM | > 10000 nM
100 to 1000 nM | 1000 to 10000 nM | 1000 to 10000 nM | Cc1cn2cc(NC(=O)c3ccc(N4CCC(NC(C)(C)C)C4)c4cc(C)oc34)cc(F)c2n1 (stereo not drawn) [Compound 203, 4-[3-(tert-butylamino)pyrrolidin-1-yl]-N-[8-fluoro-2-methylimidazo[1,2-a]pyridin-6-yl]-2-methyl-1-benzofuran-7-carboxamide] | 1000 to 10000 nM | 1000 to 10000 nM
< 100 nM | 1000 to 10000 nM | 1000 to 10000 nM | Cc1cn2cc(NC(=O)c3ccc(N4CCC(N5CCCC5)C4)c4cc(C)oc34)cc(F)c2n1 (stereo not drawn) [Compound 204, 4-[[1,3′-bipyrrolidin]-1′-yl]-N-[8-fluoro-2-methylimidazo[1,2-a]pyridin-6-yl]-2-methyl-1-benzofuran-7-carboxamide] | 1000 to 10000 nM | 1000 to 10000 nM
< 100 nM | 100 to 1000 nM | 1000 to 10000 nM | Cc1cn2cc(NC(=O)c3ccc(N4CC5(CNC5)C4)c4cc(C)oc34)cc(F)c2n1 [Compound 205] | 1000 to 10000 nM | 100 to 1000 nM
< 100 nM | 1000 to 10000 nM | > 10000 nM | Cc1cn2cc(NC(=O)c3ccc(N4CC5(CN(C)C5)C4)c4cc(C)oc34)cc(F)c2n1 [Compound 206] | 1000 to 10000 nM | 1000 to 10000 nM
< 100 nM | 100 to 1000 nM | 1000 to 10000 nM | Cc1cn2cc(NC(=O)c3ccc(N4CCN(C)CC4)c4cn(C)nc34)cc(F)c2n1 [Compound 207] | 100 to 1000 nM | 100 to 1000 nM
< 100 nM | 100 to 1000 nM | 1000 to 10000 nM | Cc1cn2cc(NC(=O)c3ccc(C4CCNCC4)c4cn(C)nc34)cc(F)c2n1 [Compound 208, N-[8-fluoro-2-methylimidazo[1,2-a]pyridin-6-yl]-2-methyl-4-(piperidin-4-yl)indazole-7-carboxamide] | 100 to 1000 nM | 100 to 1000 nM

Compound | IC50 (SMN2 CJ mRNA) | IC50 (HTT CJ mRNA) | IC50 (Target C CJ mRNA) | AC50 [1] | AC50 [2]
Cc1cn2cc(NC(=O)c3ccc(N(C)C4CCN(C)CC4)c4cc(C)oc34)cc(F)c2n1 [Compound 200] | < 100 nM | 1000 to 10000 nM | 1000 to 10000 nM | 1000 to 10000 nM | 1000 to 10000 nM
Cc1cn2cc(NC(=O)c3ccc(N(C)C4CC(C)(C)NC(C)(C)C4)c4cc(C)oc34)cc(F)c2n1 [Compound 201] | 1000 to 10000 nM | > 10000 nM | > 10000 nM | > 10000 nM | > 10000 nM
